Source: PubChem BioAssay AID1845199 (Molecular Pharmacology Branch, DTP, NCI, 2023)
pIC50: −log10 of the molar value. Where “and” joins values, the source holds several entries; their conditions need not be identical. Equal values may be shown once.

Tested on: 556581-035-R-J1 tumor spheroid viability, % test/control
Assay: Anticancer human tumor 556581-035-R-J1 patient-derived ovarian carcinoma cell line growth inhibition
Conditions: spheroids with HUVEC and MSC; for viability, T/C: stronger effect = lower value
How it was run: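 Complex tumor spheroids combined malignant cells with endothelial cells and mesenchymal stem cells. DNA-damaging drugs and DNA repair inhibitors were tested alone and in combination, at half-log dilutions down from clinical Cmax (top 10 microM if Cmax unknown), 0.25% DMSO final.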

[1] = curve of first compound, second compound 1 µM
[2] = curve of first compound, second compound 3.16 µM
[3] = curve of first compound, second compound 10 µM
[4] = curve of first compound, second compound 31.6 µM
[5] = curve of first compound, second compound 100 µM
[6] = second compound 1 µM, first compound 0.0949 µM
[7] = second compound 1 µM, first compound 0.3 µM
[8] = second compound 1 µM, first compound 0.949 µM
[9] = second compound 1 µM, first compound 3 µM
[10] = second compound 3.16 µM, first compound 0.0949 µM
[11] = second compound 3.16 µM, first compound 0.3 µM
[12] = second compound 3.16 µM, first compound 0.949 µM
[13] = second compound 3.16 µM, first compound 3 µM
[14] = second compound 10 µM, first compound 0.0949 µM
[15] = second compound 10 µM, first compound 0.3 µM
[16] = second compound 10 µM, first compound 0.949 µM
[17] = second compound 10 µM, first compound 3 µM
[18] = second compound 31.6 µM, first compound 0.0949 µM
[19] = second compound 31.6 µM, first compound 0.3 µM
[20] = second compound 31.6 µM, first compound 0.949 µM
[21] = second compound 31.6 µM, first compound 3 µM
[22] = second compound 100 µM, first compound 0.0949 µM
[23] = second compound 100 µM, first compound 0.3 µM
[24] = second compound 100 µM, first compound 0.949 µM
[25] = second compound 100 µM, first compound 3 µM
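Also: spheroids exposed to compounds for 7 days before viability read.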

SMILES | pIC50 [1] | pIC50 [2] | pIC50 [3] | pIC50 [4] | pIC50 [5] | viability, T/C [6] [%] | viability, T/C [7] [%] | viability, T/C [8] [%] | viability, T/C [9] [%] | viability, T/C [10] [%] | viability, T/C [11] [%] | viability, T/C [12] [%] | viability, T/C [13] [%] | viability, T/C [14] [%] | viability, T/C [15] [%] | viability, T/C [16] [%] | viability, T/C [17] [%] | viability, T/C [18] [%] | viability, T/C [19] [%] | viability, T/C [20] [%] | further results
CNCc1ccc(-c2cc(-c3nc(-c4ccc(S(=O)(=O)C(C)C)cc4)cnc3N)on2)cc1 + Cn1nnc2c(C(N)=O)ncn2c1=O | 5.78 | 5.81 | 5.86 | 5.86 | 6.02 | 109 | 104 | 80.2 | 18.6 | 105 | 106 | 72.6 | 20 | 110 | 105 | 67.3 | 15.3 | 110 | 98.4 | 66.2 | viability, T/C (second compound 1 µM, first compound 0.00949 µM): 101%; viability, T/C (second compound 1 µM, first compound 0.03 µM): 108%; viability, T/C (second compound 3.16 µM, first compound 0.00949 µM): 104%; viability, T/C (second compound 3.16 µM, first compound 0.03 µM): 117%; viability, T/C (second compound 10 µM, first compound 0.00949 µM): 106%; viability, T/C (second compound 10 µM, first compound 0.03 µM): 109%; viability, T/C (second compound 31.6 µM, first compound 0.00949 µM): 113%; viability, T/C (second compound 31.6 µM, first compound 0.03 µM): 113%; viability, T/C [21]: 16.5%; viability, T/C (second compound 100 µM, first compound 0.00949 µM): 111%; viability, T/C (second compound 100 µM, first compound 0.03 µM): 102%; viability, T/C [22]: 120%; viability, T/C [23]: 98.2%; viability, T/C [24]: 50.5%; viability, T/C [25]: 11.6%
O=C(c1cc(Cc2n[nH]c(=O)c3ccccc23)ccc1F)N1CCN(C(=O)C2CC2)CC1 + Cn1nnc2c(C(N)=O)ncn2c1=O | < 4.52 | < 4.52 | < 4.52 | < 4.52 | < 4.52 | 99 | 100 | 102 | 90.8 | 100 | 99.8 | 95.4 | 89.9 | 98.6 | 100 | 98.7 | 89.1 | 104 | 101 | 90.3 | viability, T/C (second compound 1 µM, first compound 9.49 µM): 80.2%; viability, T/C (second compound 1 µM, first compound 30 µM): 71.9%; viability, T/C (second compound 3.16 µM, first compound 9.49 µM): 82.4%; viability, T/C (second compound 3.16 µM, first compound 30 µM): 63.9%; viability, T/C (second compound 10 µM, first compound 9.49 µM): 74.6%; viability, T/C (second compound 10 µM, first compound 30 µM): 64.3%; viability, T/C [21]: 85.3%; viability, T/C (second compound 31.6 µM, first compound 9.49 µM): 70.9%; viability, T/C (second compound 31.6 µM, first compound 30 µM): 62.9%; viability, T/C [22]: 92.7%; viability, T/C [23]: 83.6%; viability, T/C [24]: 80.2%; viability, T/C [25]: 70.6%; viability, T/C (second compound 100 µM, first compound 9.49 µM): 67.9%; viability, T/C (second compound 100 µM, first compound 30 µM): 54.7%
Cc1sc2c(c1C)C(c1ccc(Cl)cc1)=NC(CC(=O)Nc1ccc(O)cc1)c1nnc(C)n1-2 (configuration not stated) |  |  |  |  |  |  |  |  |  |  |  |  |  |  |  |  |  |  |  |  | viability, T/C (compound 0.00949 µM): 102% and 101% and 103%; viability, T/C (compound 0.03 µM): 98.1% and 83.8% and 103%; viability, T/C (compound 0.0949 µM): 82.5% and 90.3% and 88.8%; viability, T/C (compound 0.3 µM): 74.5% and 89.5% and 82.5%; viability, T/C (compound 0.949 µM): 71.8% and 76.6% and 76%; viability, T/C (compound 3 µM): 66.2% and 70.1% and 71.4%; pIC50 (curve of compound): < 5.52
